Results: ChEMBL document CHEMBL1136245, “HIV-1 protease inhibitors with picomolar potency against PI-resistant HIV-1 by modification of the P1' substituent” (Bioorg Med Chem Lett, 2003)
In brackets after ≈: the same amount, converted by molar mass.

Experiments:
[1] = Half life of compound after both po and iv administration at a dose of 5 mg/kg and 2 mg/kg resp in dog; assay type: ADME, organism-based, Canis lupus familiaris; settings: in vivo
[2] = Solubility of compound at pH 5.2; assay type: physicochemical; settings: buffer
MT4 [3] = experiment: Antiviral activity of compound against spread of wild type V-18C virus infection in MT-4 human T-lymphoid cells; assay type: functional; settings: read-out: CIC95
[4] = Area under curve of compound after both po and iv administration at a dose of 5 mg/kg and 2 mg/kg resp in dog; assay type: ADME, organism-based, Canis lupus familiaris; settings: in vivo
[5] = target: T1, Human immunodeficiency virus type 1 protease (Human immunodeficiency virus 1, UniProt Q72874); experiment: Inhibitory activity of compound against HIV-1 protease in HIV-1 (Q-60C) strain
[6] = target: T1, Human immunodeficiency virus type 1 protease; experiment: Inhibitory activity of compound against HIV-1 protease in HIV-1 (V-18C) strain
[7] = target: T1, Human immunodeficiency virus type 1 protease; experiment: Inhibitory activity of compound against HIV-1 protease in HIV-1 (K-60C) strain
MT4 [8] = experiment: Antiviral activity of compound against spread of wild type NL4-3 virus infection in MT-4 human T-lymphoid cells; assay type: functional; settings: read-out: CIC95
MT4 [9] = experiment: Antiviral activity of compound against spread of wild type Q-60C virus infection in MT-4 human T-lymphoid cells; assay type: functional; settings: read-out: CIC95
MT4 [10] = experiment: Antiviral activity of compound against spread of wild type K-60C virus infection in MT-4 human T-lymphoid cells; assay type: functional; settings: read-out: CIC95
[11] = Clearance of compound after both po and iv administration at a dose of 5 mg/kg and 2 mg/kg resp in dog; assay type: ADME, organism-based, Canis lupus familiaris; settings: in vivo
[12] = target: T1, Human immunodeficiency virus type 1 protease; experiment: Inhibitory activity of compound against HIV-1 protease in wild type NL4-3 virus
Cytochrome P450 2C9 [13] = target: T2, Cytochrome P450 2C9 (Homo sapiens, UniProt P11712); experiment: Inhibition of human liver microsome Cytochrome P450 2C9; assay type: ADME, microsomes
Cytochrome P450 3A4 = Cytochrome P450 3A4 (Homo sapiens, UniProt P08684); experiment: Inhibition of human liver microsome Cytochrome P450 3A4; assay type: ADME, microsomes
Cytochrome P450 2D6 [14] = target: T3, Cytochrome P450 2D6 (Homo sapiens, UniProt P10635); experiment: (§1) Inhibition of human liver microsome Cytochrome P450 2D6; assay type: ADME
[15] = Oral bioavailability in dog (dose 5 mg/kg p.o. and 2 mg/kg i.v.); assay type: ADME, organism-based, Canis lupus familiaris; settings: in vivo
[16] = Cmax of compound after both po and iv administration at a dose of 5 mg/kg and 2 mg/kg resp in dog; assay type: ADME, organism-based, Canis lupus familiaris; settings: in vivo
Cytochrome P450 2D6 [17] = target: T3, Cytochrome P450 2D6; experiment: as §1; assay type: ADME, microsomes
Cytochrome P450 2C9 [18] = target: T2, Cytochrome P450 2C9; experiment: Inhibition of huamn liver microsome Cytochrome P450 2C9; assay type: ADME, microsomes

Cytochrome P450 3A4, sequence (P08684 whole entry): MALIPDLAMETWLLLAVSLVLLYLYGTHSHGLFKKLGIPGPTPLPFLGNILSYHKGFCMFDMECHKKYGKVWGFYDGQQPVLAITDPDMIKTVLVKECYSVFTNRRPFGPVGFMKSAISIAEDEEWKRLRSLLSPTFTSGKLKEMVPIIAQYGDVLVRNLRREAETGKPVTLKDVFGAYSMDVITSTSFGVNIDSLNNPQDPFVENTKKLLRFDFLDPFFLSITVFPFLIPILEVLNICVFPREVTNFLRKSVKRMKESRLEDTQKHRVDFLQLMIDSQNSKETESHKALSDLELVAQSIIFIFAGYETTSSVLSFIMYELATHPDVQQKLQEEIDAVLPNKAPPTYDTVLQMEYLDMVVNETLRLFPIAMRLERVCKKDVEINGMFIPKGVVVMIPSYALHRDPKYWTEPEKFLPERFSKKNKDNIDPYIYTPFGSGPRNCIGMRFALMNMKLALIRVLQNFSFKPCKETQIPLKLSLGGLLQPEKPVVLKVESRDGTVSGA
T3 sequence (P10635 whole entry): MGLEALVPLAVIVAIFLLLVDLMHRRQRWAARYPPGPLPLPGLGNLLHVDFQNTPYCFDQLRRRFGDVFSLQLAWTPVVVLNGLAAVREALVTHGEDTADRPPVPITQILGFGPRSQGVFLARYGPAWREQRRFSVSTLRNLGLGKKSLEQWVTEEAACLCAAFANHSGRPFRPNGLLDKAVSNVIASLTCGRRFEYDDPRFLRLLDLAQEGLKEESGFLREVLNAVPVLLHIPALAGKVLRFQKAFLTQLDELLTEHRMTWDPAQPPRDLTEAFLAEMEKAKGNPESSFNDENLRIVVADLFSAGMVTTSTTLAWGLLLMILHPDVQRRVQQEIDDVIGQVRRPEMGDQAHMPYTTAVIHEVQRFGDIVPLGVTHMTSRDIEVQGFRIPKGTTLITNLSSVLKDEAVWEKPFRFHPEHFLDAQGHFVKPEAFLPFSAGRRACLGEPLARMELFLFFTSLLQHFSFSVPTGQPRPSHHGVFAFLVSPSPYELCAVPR
T2 sequence (P11712 whole entry): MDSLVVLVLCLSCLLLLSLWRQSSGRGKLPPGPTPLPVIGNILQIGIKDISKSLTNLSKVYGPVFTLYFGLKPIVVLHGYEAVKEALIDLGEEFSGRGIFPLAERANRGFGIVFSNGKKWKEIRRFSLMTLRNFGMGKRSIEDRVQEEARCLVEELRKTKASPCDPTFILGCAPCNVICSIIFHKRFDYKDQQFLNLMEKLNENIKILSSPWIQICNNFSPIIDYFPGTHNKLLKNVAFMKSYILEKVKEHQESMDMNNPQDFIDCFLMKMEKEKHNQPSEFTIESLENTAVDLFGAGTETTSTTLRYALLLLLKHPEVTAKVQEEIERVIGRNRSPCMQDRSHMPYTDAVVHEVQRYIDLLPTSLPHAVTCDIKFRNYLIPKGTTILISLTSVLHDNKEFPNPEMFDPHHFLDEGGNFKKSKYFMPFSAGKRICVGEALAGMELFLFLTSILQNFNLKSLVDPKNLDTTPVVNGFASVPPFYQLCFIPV

| SMILES | half-life [1] [h] | solubility [2] [µg/mL] | IC95 (MT4 [3]) [nM] | AUC [4] [µM·h] | IC50 [5] [nM] | IC50 [6] [nM] | IC50 [7] [nM] | IC95 (MT4 [8]) [nM] | IC95 (MT4 [9]) [nM] | IC95 (MT4 [10]) [nM] | clearance [11] [mL/min/kg] | IC50 [12] [nM] | IC50 (Cytochrome P450 2C9 [13]) [nM] | IC50 (Cytochrome P450 3A4) [nM] | IC50 (Cytochrome P450 2D6 [14]) [nM] | bioavailability [15] [%] | Cmax [16] [nM] | IC50 (Cytochrome P450 2D6 [17]) [nM] | IC50 (Cytochrome P450 2C9 [18]) [nM] |
| --- | --- | --- | --- | --- | --- | --- | --- | --- | --- | --- | --- | --- | --- | --- | --- | --- | --- | --- | --- |
| O=C(N[C@H]1c2ccccc2OC[C@H]1O)[C@H](Cc1ccccc1)C[C@H](O)CN1CCN(Cc2ccc(-c3ccncc3)o2)C[C@H]1C(=O)NCC(F)(F)F | 1 | 670 (≈ 928 µM) | 31 | 2.58 | 0.8 | 1.3 | 0.6 | ≤ 8 | 31 | 15 | 24.5 |  |  |  |  |  |  |  |  |
| O=C(N[C@H]1c2ccccc2OC[C@H]1O)[C@H](Cc1ccncc1)C[C@H](O)CN1CCN(Cc2cc3cccc(Cl)c3o2)C[C@H]1C(=O)NCC(F)(F)F |  | < 10 | ≤ 8 |  |  | 0.14 | 0.92 | ≤ 8 | 125 | 62 |  | 0.03 |  |  |  |  |  |  |  |
| O=C(N[C@H]1c2ccccc2OC[C@H]1O)[C@H](Cc1cccnc1)C[C@H](O)CN1CCN(Cc2cc3cccc(Cl)c3o2)C[C@H]1C(=O)NCC(F)(F)F |  | 10 (≈ 13.7 µM) | ≤ 8 |  |  | 0.12 |  | 10 | 31 | 31 |  | 0.02 | 27300 | 500 | 8800 |  |  |  |  |
| O=C(N[C@H]1c2ccccc2OC[C@H]1O)[C@H](Cc1cccnc1)C[C@H](O)CN1CCN(Cc2cc3ccccc3o2)C[C@H]1C(=O)NCC(F)(F)F | 0.867 | 310 (≈ 446 µM) | 31 | 1.94 | 2.7 | 1.3 | 3.7 | 15 | 125 | 125 | 15 | 0.04 |  | 480 |  | 24 | 3360 | 19000 | 48800 |
| O=C(N[C@H]1c2ccccc2OC[C@H]1O)[C@H](Cc1ccncc1)C[C@H](O)CN1CCN(Cc2cc3ccccc3o2)C[C@H]1C(=O)NCC(F)(F)F | 1.7 | 280 (≈ 402 µM) |  | 0.22 |  | 2.2 | 10 | 15 | 250 |  | 22.5 | 0.1 |  | 2200 |  | 4 | 380 | 3600 |  |
| O=C(N[C@H]1c2ccccc2OC[C@H]1O)[C@H](Cc1ccncc1)C[C@H](O)CN1CCN(Cc2ccc(-c3ccccc3)o2)C[C@H]1C(=O)NCC(F)(F)F | 1.07 | 40 (≈ 55.4 µM) | 31 | 0.16 | 0.2 | 0.34 | 0.11 | 15 | 31 | ≤ 8 | 17.4 | 0.04 |  | 1500 |  | 2 | 210 | 14900 |  |
| O=C(N[C@H]1c2ccccc2OC[C@H]1O)[C@H](Cc1cccnc1)C[C@H](O)CN1CCN(Cc2ccc(-c3ccccc3)o2)C[C@H]1C(=O)NCC(F)(F)F | 1.23 | 10 (≈ 13.9 µM) | ≤ 8 | 0.08 | 0.07 | 0.15 | 0.06 | ≤ 8 | ≤ 8 | ≤ 8 | 20.5 | 0.02 |  | 430 |  | 1 | 110 | 15600 | 83900 |
| CC(C)(C)NC(=O)[C@@H]1CN(Cc2cccnc2)CCN1C[C@@H](O)C[C@@H](Cc1ccccc1)C(=O)N[C@H]1c2ccccc2C[C@H]1O |  |  | > 1000 |  |  |  |  | 50 | > 1000 | > 1000 |  |  |  |  |  |  |  |  |  |
